# Experimental data taken from patent US20220313651A1, “INHIBITORS OF ZIKA VIRUS INFECTION” (priority 2019, published 2022).
# Where two headings read alike, the source gives them in different places.
# Key:
# [1] = biological target: T1, ZIKV NS2B-NS3 protease (Zika virus, UniProt Q32ZE1); experiment: ELISA binding to ZIKV NS2B-NS3 protease
# T1 construct: 49-97) and NS2 protein (residues 1-185) through a covalent; made in house; host or cells: E. coli
# Method: (§1) Binding of compounds (NPs) to ZIKV full-length E (FIG. 3A), EDIII (FIG. 3B), and NS2B-NS3 (FIG. 3C) proteins, was detected by ELISA. The percent binding was reported in the presence or absence of serially diluted NPs using the formula (1-[E/EDIII-NP]/[E/EDIII])×100 (for E/EDIII binding) or (1-[NS2B-NS3-NP]/[NS2B-NS3])×100 (for NSEB-NS3 binding). […] The concentrations of ZIKV EDIII and mAbs were 1.5 and 0.5 μg/ml, respectively. […] The concentrations of substrate (Bz-Nle-Lys-Lys-Arg-AMC) and ZIKV NS2B-NS3 protein were 4 μM and 1 μg/ml, respectively. The percent inhibition of protease activity was calculated in the presence or absence of serially diluted compounds using the formula (1-[NS2B-NS3-substrate-NP]/[NS2B-NS3-substrate])×100. The IC50 values were calculated based on the percent inhibition. The data are expressed as mean±s.e.m. (n=4).
# (§2) The data are expressed as mean±s.e.m. (n=4), and DMSO was used as negative control. Surface plasmon resonance (SPR) analysis of the binding between ST087010 and ZIKV EDIII (FIG. 6D) or NS2B-NS3 (FIG. 6E) protein was performed. Binding affinity was shown as KD (equilibrium dissociation constant).
# (§3) The binding between the Z-medicament and ZIKV full-length E protein, EDIII protein (E residues 298-409 fused with a C-terminal human Fc), or NS2B-NS3 protease was carried out by ELISA. Briefly, ELISA plates were pre-coated with the proteins described above at 4° C. overnight, and blocked with 2% fat-free milk at 37° C. for 2 h. Serial dilutions of the Z-medicament or DMSO (control) were then added to the plates and incubated at 37° C. for 2 h. The plates were washed with PBS containing Tween-20 (PBST), and incubated at 37° C. for 1 h with ZIKV EDIII-specific human mAb ZKA64-LALA (0.5 μg/ml) (for binding to ZIKV full-length E and EDIII proteins), or mouse sera specific to ZIKV NS2B-NS3 (for binding to NS2B-NS3 protease). The plates were washed with PBST, and incubated with horseradish peroxidase (HRP)-conjugated anti-human IgG-Fab (1:3000) or anti-mouse IgG (1:3000) antibody at 37° C. for 1 h. The 3,3′,5,5′-tetramethylbenzidine (TMB) substrate was added to the plates, and the reaction was stopped by 1 N H2SO4. Absorbance at 450 nm (A450 value) was measured by ELISA microplate reader.
# (§4) Briefly, ELISA plates were coated with each protein (1 μg/ml) at 4° C. overnight, and were then incubated with blocking buffer containing 2% fat-free milk in PBST at 37° C. for 2 h. The above compounds, or DMSO control, at serial dilutions were added to the plates, and incubated at 37° C. for 2 h. After three washes using PBST, the plates were incubated at 37° C. for 2 h with ZIKV EDIII-specific human mAb ZKA64-LALA (0.5 μg/ml) (for binding to ZIKV full-length E or EDIII protein), or ZIKV NS2B-NS3-specific mouse sera (for binding to NS2B-NS3 protein). After further washes, the plates were incubated with HRP-conjugated anti-human IgG-Fab (1:3,000) or anti-mouse IgG (1:3,000) antibody at 37° C. for 1 h.
# [2] = biological target: T2, ZIKV EDIII protein (E residues 298-409) (Zika virus, UniProt Q32ZE1, D679E/I627V/V603I/V629A); format: binding; settings: ELISA
# T2 construct: human Fc (C)
# Method: as §1, §2, §3
# Briefly, ELISA plates were coated with each protein (1 μg/ml) at 4° C. overnight, and were then incubated with blocking buffer containing 2% fat-free milk in PBST at 37° C. for 2 h. The above compounds, or DMSO control, at serial dilutions were added to the plates, and incubated at 37° C. for 2 h. […] Absorbance at 450 nm (A450 values) was measured by an ELISA microplate reader. EC50 values were calculated.
# [3] = biological target: ZIKV full-length E protein (Zika virus, UniProt Q32ZE1); experiment: ELISA binding to ZIKV full-length E protein
# Method: as §1, §2, §3
# as §4, with “1 h. The plates were incubated with substrate TMB, and the reaction was stopped by addition of 1 N H2SO4. Absorbance at 450 nm (A450 values) was measured by an ELISA microplate reader. EC50 values were calculated.” for “1 h.”
# [4] = test system: ZIKV human strain PAN2016 (2016/Panama); experiment: Plaque reduction inhibition assay in Vero E6 cells, ZIKV PAN2016; format: cell-based, Zika virus (ZIKV)
# Method: (§5) A plaque reduction inhibition assay was carried out to measure the inhibitory activity of Z-medicaments against infections of ZIKV and DENV. […] The compound-virus mixtures were then transferred to Vero E6 cells (10^5/well) and incubated at 37° C. for 1 h.
# [5] = test system: ZIKV human strain PRVABC59 (2015/Puerto Rico); experiment: Plaque reduction inhibition assay in Vero E6 cells, ZIKV PRVABC59; format: cell-based, Zika virus (ZIKV)
# Method: as §5
# [6] = test system: ZIKV rhesus macaque strain MR 766 (1947/Uganda); experiment: Plaque reduction inhibition assay in Vero E6 cells, ZIKV MR 766; format: cell-based, Zika virus (ZIKV)
# Method: as §5
# [7] = test system: Vero E6 cells; experiment: in vitro
# Method: The cytotoxicity of the Z-medicaments in Vero E6 (ZIKV target cells) was evaluated using the Cell Counting Kit-8 (CCK8).
# Briefly, compounds at 2-fold serial dilutions were added to cells (2.0×10^4/well) pre-seeded in 96-well plates. The cells were cultured at 37° C. for 3 days, and incubated with CCK8 solution, followed by measurement of absorbance at 450 nm (A450 value) using microplate reader.
# [8] = Vero E6 cells, 3 days, CCK8, Table 1
# [9] = Zika virus, Vero C1008, Vero E6 cells, Table 1, read-out: IC50 against ZIKV strain PAN2016
# [10] = Zika virus, Vero C1008, in Macaca mulatta, Vero E6 cells, Table 1, read-out: IC50 against ZIKV strain MR 766
SMILES,Binding to ZIKV NS2B-NS3 protein (in words) [1],Binding to ZIKV EDIII protein (in words) [2],Binding to ZIKV full-length E protein (in words) [3],"CC50 [7, 8] [µM]","IC50 [4, 9] [µM]","IC50 [6, 10] [µM]",also measured
"C[C@H]1[C@H]2CC[C@H]3[C@@H]4CC=C5C[C@@H](N(C)C)CC[C@]5(C)[C@H]4CC[C@]23CN1C [Conessine, conessine]",bound to no ZIKV proteins tested,bound to no ZIKV proteins tested,bound to no ZIKV proteins tested,–,–,–,–
Cc1cc2c(C(C)C)c(O)c(O)c(/C=N/n3c(=O)[nH][nH]c3=O)c2c(O)c1-c1c(C)cc2c(C(C)C)c(O)c(O)c(/C=N/n3c(=O)[nH][nH]c3=O)c2c1O [ST087010],–,–,–,–,–,–,"IC50 ([4]; Vero E6 cells, Table 7, gossypol derivatives, read-out: ZIKV strains IC50, PAN2016): 3.17 ± 0.18 µM; EC50 ([1]; detected with NS2B-NS3-immunized mouse sera, read-out: EC50, binding to ZIKV NS2B-NS3 protein): 21.9 µM; IC50 ([5]; Vero E6 cells, Table 7, gossypol derivatives, read-out: ZIKV strains IC50, PRVABC59): 2.36 ± 0.05 µM; IC50 ([6]; Vero E6 cells, Table 7, gossypol derivatives, read-out: ZIKV strains IC50, MR766): 3.52 ± 0.2 µM; EC50 ([2]; detected with mAb ZKA64-LALA, read-out: EC50, binding to ZIKV EDIII protein): 6.13 µM; CC50 relative to that of gossypol ([7]; Vero E6 cells): about 3.5 fold; CC50 ([7]; Vero E6 cells, Table 7, gossypol derivatives): 49.6 ± 1.83 µM; EC50 ([3]; detected with mAb ZKA64-LALA): 6.47 µM"
"COc1cc(/C=C/C(=O)CC(=O)/C=C/c2ccc(O)c(OC)c2)ccc1O [Curcumin, curcumin]",much lower binding affinity,–,much lower binding affinity,52.86 ± 0.52,–,–,–
"Cc1cc2c(C(C)C)c(O)c(O)c(C=O)c2c(O)c1-c1c(C)cc2c(C(C)C)c(O)c(O)c(C=O)c2c1O [Gossypol, gossypol]",–,–,–,–,3.48,3.75 ± 0.01,"IC50 ([4]; Zika virus, Vero C1008, read-out: ZIKV strains IC50, PAN2016): 3.78 ± 0.3 µM; IC50 ([5]; Zika virus, Vero C1008, read-out: ZIKV strains IC50, PRVABC59): 4.55 ± 0.07 µM; IC50 ([6]; Zika virus, Vero C1008, in Macaca mulatta, read-out: ZIKV strains IC50, MR766): 4.14 ± 0.05 µM; CC50 ([7]; African green monkey, 3 days): 14.2 ± 0.74 µM"
"C[C@@H]1CC[C@@]2(OC1)O[C@H]1[C@@H](O)[C@H]3[C@@H]4CC[C@H]5C[C@@H](O[C@@H]6O[C@H](CO)[C@H](O[C@@H]7O[C@H](CO)[C@@H](O)[C@H](O[C@@H]8OC[C@@H](O)[C@H](O)[C@H]8O)[C@H]7O[C@@H]7O[C@H](CO)[C@H](O)[C@H](O[C@@H]8O[C@H](CO)[C@@H](O)[C@H](O)[C@H]8O)[C@H]7O)[C@H](O)[C@H]6O)[C@H](O)C[C@]5(C)[C@H]4CC[C@]3(C)[C@H]1[C@@H]2C [Digitonin, digitonin]",bound to no ZIKV proteins tested,bound to no ZIKV proteins tested,bound to no ZIKV proteins tested,56.3 ± 1.2,4.31,3.77 ± 0.31,"IC50 ([5]; Zika virus, Vero C1008, Vero E6 cells, Table 1, read-out: IC50 against ZIKV strain PRVABC59): 3.76 ± 1.12 µM"
